# According to patent US20040110763A1, “Pyrazolopyridine compound and pharmaceutical use thereof” (priority 2000, published 2004):
row,Structure (SMILES),melting point
1,"CC(C)n1nc(-c2c(-c3ccccc3)nn3ccc(N4CCN(Cc5ccccc5)CC4)cc23)ccc1=O [Example 105, 5-(4-Benzyl-1-piperazinyl)-3-(3-oxo-2-isopropyl-2,3-dihydropyridazin-6-yl)-2-phenylpyrazolo[1,5-a]pyridine]",136 to 138 °C
2,"COc1ccn2nc(-c3ccccc3)c(-c3ccc(=O)n(C4CCCN(C)C4)n3)c2c1 (stereo not drawn) [Example 123, 5-Methoxy-3-[3-oxo-2-(1-methylpiperidin-3-yl)-2,3-dihydropyridazin-6-yl]-2-phenylpyrazolo[1,5-a]pyridine]",179 to 180 °C
3,"CCOc1ccn2nc(-c3ccccc3)c(-c3ccc(=O)n(C(C)C)n3)c2c1 [Example 26, 5-Ethoxy-3-(3-oxo-2-isopropyl-2,3-dihydropyridazin-6-yl)-2-phenylpyrazolo[1,5-a]pyridine]",181 to 182 °C
4,"CC(C)n1nc(-c2c(-c3ccccc3)nn3ccc(OCCCN(C)C)cc23)ccc1=O [Example 15, 5-(3-Dimethylaminopropoxy)-3-(3-oxo-2-isopropyl-2,3-dihydropyridazin-6-yl)-2-phenylpyrazolo[1,5-a]pyridine]",125 to 126 °C
5,"CC(C)n1nc(-c2c(-c3ccccc3)nn3ccc(N)cc23)ccc1=O [Example 146, 5-amino-3-(3-oxo-2-isopropyl-2,3-dihydropyridazin-6-yl)-2-phenylpyrazolo[1,5-a]pyridine]",196 to 197 °C
6,"CC(C)n1nc(-c2c(-c3ccccc3)nn3ccc(NS(C)(=O)=O)cc23)ccc1=O [Example 150, 5-Methylsulfonylamino-3-(3-oxo-2-isopropyl-2,3-dihydropyridazin-6-yl)-2-phenylpyrazolo[1,5-a]pyridine]",193 to 194 °C
7,"COC1CCN(c2ccn3nc(-c4ccccc4)c(-c4ccc(=O)n(C(C)C)n4)c3c2)CC1 [Example 106, 5-(4-methoxy-1-piperidinyl)-3-(3-oxo-2-isopropyl-2,3-dihydropyridazin-6-yl)-2-phenylpyrazolo[1,5-a]pyridine]",177 to 178 °C
8,"CC(=O)Nc1cccc2c(-c3ccc(=O)n(C(C)C)n3)c(-c3ccccc3)nn12 [Example 187, 7-Acetylamino-3-(3-oxo-2-isopropyl-2,3-dihydropyridazin-6-yl)-2-phenylpyrazolo[1,5-a]pyridine]",92 to 96 °C
9,"COc1ccc(S(=O)(=O)Oc2ccn3nc(-c4ccccc4)c(-c4ccc(=O)n(C(C)C)n4)c3c2)cc1 [Example 7, 5-(4-methoxyphenylsulfonyl)oxy-3-(3-oxo-2-isopropyl-2,3-dihydropyridazin-6-yl)-2-phenylpyrazolo[1,5-a]pyridine]",155 to 157 °C
10,"CC(C)n1nc(-c2c(-c3ccccc3)nn3ccc(OCC(=O)NC4CCCC4)cc23)ccc1=O [Example 62, N-Cyclopentyl-2-{[3-(3-oxo-2-isopropyl-2,3-dihydropyridazin-6-yl)-2-phenylpyrazolo[1,5-a]pyridin-5-yl]oxy}acetamide]",187 to 188 °C
11,"CC(C)n1nc(-c2c(-c3ccccc3)nn3ccc(C(=O)N4CCC(c5ccccc5)CC4)cc23)ccc1=O [Example 84, 5-[(4-Phenyl-1-piperidinyl)carbonyl]-3-(3-oxo-2-isopropyl-2,3-dihydropyridazin-6-yl)-2-phenylpyrazolo[1,5-a]-pyridine]",184 to 185 °C
12,"COc1ccn2nc(-c3ccccc3)c(-c3ccc(=O)n(C4CCN(C)CC4)n3)c2c1 [Example 122, 5-methoxy-3-[3-oxo-2-(1-methylpiperidin-4-yl)-2,3-dihydropyridazin-6-yl]-2-phenylpyrazolo[1,5-a]pyridine]",154 to 155 °C
13,"CC(C)n1nc(-c2c(-c3ccccc3)nn3ccc(N4CCN(C(=O)N(C)C)CC4)cc23)ccc1=O [Example 109, 4-[3-(3-oxo-2-isopropyl-2,3-dihydropyridazin-6-yl)-2-phenylpyrazolo[1,5-a]pyridin-5-yl]-N,N-dimethyl-1-piperazinecarboxamide]",160 to 161 °C
14,"CC(C)n1nc(-c2c(-c3ccccc3)nn3ccc(NC(=O)c4ccccc4)cc23)ccc1=O [Example 148, 5-Benzoylamino-3-(3-oxo-2-isopropyl-2,3-dihydropyridazin-6-yl)-2-phenylpyrazolo[1,5-a]pyridine]",266 to 267 °C
15,"CC(C)n1nc(-c2c(-c3ccccc3)nn3ccc(OCc4ccccn4)cc23)ccc1=O [Example 12, 5-(2-Pyridinylmethoxy)-3-(3-oxo-2-isopropyl-2,3-dihydropyridazin-6-yl)-2-phenylpyrazolo[1,5-a]pyridine]",150 to 151 °C
16,"COC(=O)N1CCN(c2ccn3nc(-c4ccccc4)c(-c4ccc(=O)n(C(C)C)n4)c3c2)CC1 [Example 108, methyl 4-[3-(3-oxo-2-isopropyl-2,3-dihydropyridazin-6-yl)-2-phenylpyrazolo[1,5-a]pyridin-5-yl]-1-piperazinecarboxylate]",206 to 207 °C
17,"CC(C)n1nc(-c2c(-c3ccccc3)nn3ccc(OCC(=O)NC4CC4)cc23)ccc1=O [Example 61, N-Cyclopropyl-2-{[3-(3-oxo-2-isopropyl-2,3-dihydropyridazin-6-yl)-2-phenylpyrazolo[1,5-a]pyridin-5-yl]oxy}acetamide]",199 to 200 °C

row,Structure (SMILES),melting point
1,"CCOCCNC(=O)COc1ccn2nc(-c3ccccc3)c(-c3ccc(=O)n(C(C)C)n3)c2c1 [Example 67, N-(2-Ethoxyethyl)-2-{[3-(3-oxo-2-isopropyl-2,3-dihydropyridazin-6-yl)-2-phenylpyrazolo[1,5-a]pyridin-5-yl]oxy}acetamide]",126.5 to 127.5 °C
2,"CC(C)n1nc(-c2c(-c3ccccc3)nn3ccc(OCCN4CCCC4=O)cc23)ccc1=O [Example 28, 5-[2-(2-Oxo-1-pyrrolidinyl)ethoxy]-3-(3-oxo-2-isopropyl-2,3-dihydropyridazin-6-yl)-2-phenylpyrazolo [1,5-a]pyridine]",162 to 163 °C
3,"CCCn1nc(-c2c(-c3ccccc3)nn3ccc(OC)cc23)ccc1=O [Example 117, 5-Methoxy-3-(3-oxo-2-propyl-2,3-dihydropyridazin-6-yl)-2-phenylpyrazolo[1,5-a]pyridine]",174 °C
4,"CC(=O)N1CCN(c2ccn3nc(-c4ccccc4)c(-c4ccc(=O)n(C(C)C)n4)c3c2)CC1 [Example 113, 5-(4-Acetyl-1-piperazinyl)-3-(3-oxo-2-isopropyl-2,3-dihydropyridazin-6-yl)-2-phenylpyrazolo[1,5-a]pyridine]",148 to 149 °C
5,"Nc1cccc2c(-c3ccc(=O)[nH]n3)c(-c3ccccc3)nn12 [Example 133, 7-amino-3-(3-oxo-2,3-dihydropyridazin-6-yl)-2-phenylpyrazolo[1,5-a]pyridine]",157 to 159 °C
6,"CC(C)n1nc(-c2c(-c3ccccc3)nn3ccc(OCc4ccncc4)cc23)ccc1=O [Example 19, 5-(4-Pyridinylmethoxy)-3-(3-oxo-2-isopropyl-2,3-dihydropyridazin-6-yl)-2-phenylpyrazolo[1,5-a]pyridine]",218 to 219.5 °C
7,"CCCn1nc(-c2c(-c3ccc(F)cc3)nn3ccc(OC)cc23)ccc1=O [Example 132, 5-Methoxy-3-(3-oxo-2-propyl-2,3-dihydropyridazin-6-yl)-2-(4-fluorophenyl)pyrazolo[1,5-a]pyridine]",190 to 191 °C
8,"CC(C)n1nc(-c2c(-c3ccccc3)nn3ccc(OC4CCOCC4)cc23)ccc1=O [Example 46, 5-(Tetrahydropyran-4-yl)oxy-3-(3-oxo-2-isopropyl-2,3-dihydropyridazin-6-yl)-2-phenylpyrazolo[1,5-a]pyridine]",210.5 to 211 °C
9,"CC(C)n1nc(-c2c(-c3ccccc3)nn3ccc(OCC(=O)N4CCN(C(=O)N(C)C)CC4)cc23)ccc1=O [Example 55, N,N-dimethyl-4-[{3-(3-oxo-2-isopropyl-2,3-dihydropyridazin-6-yl)-2-phenylpyrazolo[1,5-a]pyridin-5-yl}oxy]acetyl-1-piperazine carboxamide]",151 to 152 °C
10,"CCCOc1ccn2nc(-c3ccccc3)c(-c3ccc(=O)n(C(C)C)n3)c2c1 [Example 21, 5-Propoxy-3-(3-oxo-2-isopropyl-2,3-dihydropyridazin-6-yl)-2-phenylpyrazolo[1,5-a]pyridine]",161.5 to 162.5 °C
11,"COc1cccn2nc(-c3ccccc3)c(-c3ccc(=O)n(C(C)C)n3)c12 [Example 194, 4-Methoxy-3-(3-oxo-2-isopropyl-2,3-dihydropyridazin-6-yl)-2-phenylpyrazolo[1,5-a]pyridine]",185 to 186 °C
12,"CC(C)n1nc(-c2c(-c3ccccc3)nn3ccc(Oc4ccncc4)cc23)ccc1=O [Example 35, 5-(4-Pyridinyloxy)-3-(3-oxo-2-isopropyl-2,3-dihydropyridazin-6-yl)-2-phenylpyrazolo[1,5-a]pyridine]",218.5 to 219.5 °C
13,"CC(C)n1nc(-c2c(-c3ccccc3)nn3ccc(N4C[C@@H](C)O[C@@H](C)C4)cc23)ccc1=O [Example 100, 5-(cis-2,6-Dimethyl-4-morpholinyl)-3-(3-oxo-2-isopropyl-2,3-dihydropyridazin-6-yl)-2-phenylpyrazolo[1,5-a]-pyridine]",176 to 177 °C
14,"COc1ccn2nc(-c3ccccc3F)c(-c3ccc(=O)n(C(C)C)n3)c2c1 [Example 127, 5-Methoxy-3-(3-oxo-2-isopropyl-2,3-dihydropyridazin-6-yl)-2-(2-fluorophenyl)pyrazolo[1,5-a]pyridine]",174 to 175 °C
15,"CC(C)n1nc(-c2c(-c3ccccc3)nn3ccc(OC4CCN(C(=O)OC(C)(C)C)CC4)cc23)ccc1=O [Example 29, tert-Butyl 4-{[3-(3-oxo-2-isopropyl-2,3-dihydropyridazin-6-yl)-2-phenylpyrazolo[1,5-a]pyridin-5-yl]oxy}-1-piperidinecarboxylate]",176 to 179 °C
16,"CC(C)n1nc(-c2c(-c3ccccc3)nn3ccc(C(=O)N4CCCC4)cc23)ccc1=O [Example 73, 5-(1-pyrrolidinylcarbonyl)-3-(3-oxo-2-isopropyl-2,3-dihydropyridazin-6-yl)-2-phenylpyrazolo[1,5-a]pyridine]",189 to 190 °C
